# Test results: ChEMBL document CHEMBL1124768 (1990)
# Experiments:
# Assay type in all cases: functional
# [1] = tested on: Rattus norvegicus; experiment: Inhibition of carrageenan-induced 4 hours after 50 mg/kg i.p. administration in rats.; settings: ip, route intraperitoneal
# [2] = tested on: Rattus norvegicus; experiment: Inhibitory activity was measured on carrageenan-induced paw edema at a dose of 100 mg/Kg at 4 hours after intraperitoneal administration in rats; settings: ip
# [3] = tested on: Rattus norvegicus; experiment: Inhibitory activity was measured on carrageenan-induced paw edema at a dose of 25 mg/Kg at 4 hours after intraperitoneal administration in rats; settings: ip
Structure (SMILES),inhibition in vivo at 50 mg/kg [1] [%],inhibition in vivo at 100 mg/kg [2] [%],inhibition in vivo at 25 mg/kg [3] [%]
CC(C)=NOCCC(=O)O,21,35,–
O=C(O)CCO/N=C/c1ccccc1,66,–,15
C/C(=N\OCCC(=O)O)C1CC1,16,–,–
CC/C(=N\OCCC(=O)O)c1ccccc1,28,20,19
CCC(/C=N/OCCC(=O)O)CC,0,–,–
O=C(O)CCO/N=C/C1CCCCC1,0,–,–
CCCC(CCC)=NOCCC(=O)O,0,–,–
C/C(=N\OCCC(=O)O)C1CCCCC1,0,–,–
CC(C)C(=NOCCC(=O)O)C(C)C,12,–,–
O=C(O)CCON=C1c2ccccc2-c2ccccc21,0,–,–
O=C(O)CCON=C(c1ccccc1)c1ccccc1,11,–,–
O=C(O)CCO/N=C1/CC2CCC1C2 (stereo not drawn),16,–,–
C/C(=N\OCCC(=O)O)c1ccccc1,40,31,23
O=C(O)CCO/N=C/c1cccs1,0,–,–
O=C(O)CCO/N=C\c1ccccc1,0,–,–
O=C(O)CCON=C1C2CC3CC(C2)CC1C3,19,–,–
O=C(O)CCO/N=C/c1ccco1,15,–,–
CC/C(=N\OCCC(=O)O)C(C)C,35,< 27,21
O=C(O)Cc1ccccc1Nc1c(Cl)cccc1Cl [DICLOFENAC],67,–,31
